For this test, the target named is T1, Human KDR (Homo sapiens, UniProt P35968).
T1 construct: expressed in transfected cells; host or cells: NIH3T3 cells (mouse fibroblasts)
In words: Inhibition of KDR phosphorylation in human KDR-transfected NIH3T3 cells (ELISA). The conditions noted are these: for Selection ratio (KDR phosphorylation IC50 / c-fms phosphorylation IC50): class 0-3; for IC50: human KDR-transfected NIH3T3 cells, VEGF 100 ng/ml, ELISA, read-out: KDR phosphorylation 50% inhibitory concentration (IC50). The test is classed as cell-based. As for the experimental part:
Human KDR-transfected NIH3T3 cells (Sawano A et al., Cell Growth & Differentiation, 7, 213-221 (1996)) were cultured in a DMEM medium containing 10% fetal calf serum (purchased from GIBCO BRL) within a 5% carbon dioxide incubator until 50 to 70% confluent. The harvested cells were seeded into wells, containing the same medium, in a collagen type 1 coat 96-well flat-bottom plate in an amount of 1.5×10^4 per well, and cultured at 37° C. overnight. The medium was replaced with a 0.1% fetal calf serum-containing DMEM medium. The test compound dissolved in dimethyl sulfoxide was added to each well, and the cultivation was continued at 37° C. for additional one hr. A human recombinant vascular endothelial growth factor (hereinafter abbreviated to “VEGF”) was added to a final concentration of 100 ng/ml, followed by stimulation of cells at 37° C. for 2 min. The medium was removed, and the cells were washed with phosphate buffered saline (pH 7.4). A solubilization buffer (50 μl) (20 mM HEPES (pH 7.4), 150 mM NaCl, 0.2% Triton X-100, 10% glycerol, 5 mM sodium orthovanadylate, 5 mM disodium ethylenediaminetetraacetate, and 2 mM Na4P2O7) was then added thereto. The mixture was shaken at 4° C. for 2 hr to prepare a cell extract.
Separately, phosphate buffered saline (50 μl, pH 7.4) containing 5 μg/ml of anti-phospho-tyrosine antibody (PY20; purchased from Transduction Laboratories) was added to a microplate for ELISA (Maxisorp; purchased from NUNC), followed by standing at 4° C. overnight to be immobilized on the wells. After washing of the plate, 300 μl of a blocking solution was added, followed by standing at room temperature for 2 hr to perform blocking. After washing, the whole cell extract was transferred and was allowed to stand at 4° C. overnight. After washing, an anti-KDR antibody (purchased from Santa Cruz Biotechnology) was allowed to react at room temperature for one hr. Further, after washing, a peroxidase-labeled anti-rabbit Ig antibody (purchased from Amersham) was allowed to react at room temperature for one hr. After washing, a chromophoric substrate for peroxidase (purchased from Sumitomo Bakelite Co., Ltd.) was added thereto to initiate a reaction. After a suitable level of color development, a reaction termination solution was added to stop the reaction, and the absorbance at 450 nm was measured with a microplate reader. The KDR phosphorylation activity for each well was determined by presuming the absorbance without the addition of the test compound and with the addition of VEGF to be 100% KDR phosphorylation activity and the absorbance without the addition of the test compound and VEGF to be 0% KDR phosphorylation activity. The concentration of the test compound was varied on several levels, the KDR phosphorylation inhibitory rate was determined for each case, and the concentration of the test compound necessary for inhibiting 50% of KDR phosphorylation (IC50) was calculated.

T1 sequence (P35968 20-1356): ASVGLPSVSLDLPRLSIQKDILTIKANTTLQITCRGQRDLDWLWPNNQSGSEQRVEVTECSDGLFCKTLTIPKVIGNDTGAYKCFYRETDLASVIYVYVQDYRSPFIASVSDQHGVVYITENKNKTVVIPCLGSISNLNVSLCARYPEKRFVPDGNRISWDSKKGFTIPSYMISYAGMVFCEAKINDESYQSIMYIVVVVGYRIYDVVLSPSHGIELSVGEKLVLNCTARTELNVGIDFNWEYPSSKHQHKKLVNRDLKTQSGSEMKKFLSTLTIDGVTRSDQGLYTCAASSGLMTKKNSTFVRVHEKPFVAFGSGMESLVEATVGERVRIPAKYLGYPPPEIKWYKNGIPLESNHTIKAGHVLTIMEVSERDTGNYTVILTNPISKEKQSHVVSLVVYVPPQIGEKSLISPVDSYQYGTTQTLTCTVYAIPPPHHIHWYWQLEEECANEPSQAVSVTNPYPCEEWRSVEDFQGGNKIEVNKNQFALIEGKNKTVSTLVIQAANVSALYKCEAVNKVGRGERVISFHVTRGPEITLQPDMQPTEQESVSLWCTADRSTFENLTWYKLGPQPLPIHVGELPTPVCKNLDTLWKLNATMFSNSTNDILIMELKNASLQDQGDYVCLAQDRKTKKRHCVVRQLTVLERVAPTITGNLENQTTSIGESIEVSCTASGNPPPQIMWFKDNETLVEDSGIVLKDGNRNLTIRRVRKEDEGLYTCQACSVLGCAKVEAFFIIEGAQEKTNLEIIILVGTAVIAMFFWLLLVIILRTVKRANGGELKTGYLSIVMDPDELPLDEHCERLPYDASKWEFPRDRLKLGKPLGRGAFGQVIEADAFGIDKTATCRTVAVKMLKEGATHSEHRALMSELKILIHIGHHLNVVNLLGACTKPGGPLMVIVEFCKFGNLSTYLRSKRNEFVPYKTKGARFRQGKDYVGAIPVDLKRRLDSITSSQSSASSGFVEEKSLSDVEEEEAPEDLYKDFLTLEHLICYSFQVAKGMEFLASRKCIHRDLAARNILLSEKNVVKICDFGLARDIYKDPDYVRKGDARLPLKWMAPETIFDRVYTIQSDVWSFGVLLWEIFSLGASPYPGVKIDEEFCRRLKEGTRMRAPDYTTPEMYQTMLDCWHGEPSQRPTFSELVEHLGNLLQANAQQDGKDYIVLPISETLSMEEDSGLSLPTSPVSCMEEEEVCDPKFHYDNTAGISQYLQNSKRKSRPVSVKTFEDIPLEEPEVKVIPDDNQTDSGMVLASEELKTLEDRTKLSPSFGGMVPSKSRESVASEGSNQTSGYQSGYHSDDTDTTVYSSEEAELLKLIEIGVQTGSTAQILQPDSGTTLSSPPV

Turning to `COc1cc2nccc(Oc3ccc(NC(=O)NC(C)c4nccs4)cc3)c2cc1OC` (centres unmarked) [Example 77, N-{4-[(6,7-Dimethoxy-4-quinolyl)oxy]phenyl}-N′-[1-(1,3-thiazol-2-yl)ethyl]urea], the “Selection ratio (KDR phosphorylation IC50 / c-fms phosphorylation IC50)” value is listed as 2 (when the value was 10 or more) and the IC50 was 101 nM.
On the same counts, the results for `COc1cc2nccc(Oc3cc(C)c(NC(=O)N[C@H](C)c4ccc(F)cc4)cc3C)c2cc1OC` [Example 9, N-{4-[(6,7-Dimethoxy-4-quinolyl)oxy]-2,5-dimethylphenyl}-N′-[(1R)-1-(4-fluorophenyl)ethyl]urea] are 0 (KDR phosphorylation 50% inhibitory concentration [μM]/c-fms phosphorylation 50% inhibitory concentration [μM] was less than 5) and 2.7 nM.
Regarding `COc1cc2nccc(Oc3ccc(NC(=O)N[C@H](C)c4cccc(Br)c4)c(Cl)c3)c2cc1OC` [Example 55, N-[(1R)-1-(3-Bromophenyl)ethyl]-N′-{2-chloro-4-[(6,7-dimethoxy-4-quinolyl)oxy]phenyl}urea], the “Selection ratio (KDR phosphorylation IC50 / c-fms phosphorylation IC50)” value is 0 (KDR phosphorylation 50% inhibitory concentration [μM]/c-fms phosphorylation 50% inhibitory concentration [μM] was less than 5) and the IC50 worked out at 1.6 nM.
On the same counts, the results for `COc1cc2c(Oc3ccc(NC(=O)NC(C)c4ccc(F)c(F)c4)c(F)c3)ccnc2cc1OCCCN1CCOCC1` (centres unmarked) [Example 68, N-[1-(3,4-Difluorophenyl)ethyl]-N′-(2-fluoro-4-{[6-methoxy-7-(3-morpholinopropoxy)-4-quinolyl]oxy}phenyl)urea] are 0 (KDR phosphorylation 50% inhibitory concentration [μM]/c-fms phosphorylation 50% inhibitory concentration [μM] was less than 5) and 5.6 nM.
For `COc1cc2nccc(Oc3ccc(NC(=O)N[C@H](C)c4nccs4)cc3OC)c2cc1OC` [Example 82, N-{4-[(6,7-Dimethoxy-4-quinolyl)oxy]-3-methoxyphenyl}-N′-[(1R)-1-(1,3-thiazol-2-yl)ethyl]urea] the same measures were 3 (when the value was 50 or more) and 650 nM.
For `COc1cc2nccc(Oc3ccc(NC(=O)N[C@H](C)c4ccc(F)cc4)c(F)c3)c2cc1OC` [Example 30, N-{4-[(6,7-Dimethoxy-4-quinolyl)oxy]-2-fluorophenyl}-N′-[(1R)-1-(4-fluorophenyl)ethyl]urea] the same measures were 0 (KDR phosphorylation 50% inhibitory concentration [μM]/c-fms phosphorylation 50% inhibitory concentration [μM] was less than 5) and < 1 nM.
With `COc1cc(Oc2ccnc3cc(OC)c(OC)cc23)ccc1NC(=O)NC(C)c1ccc(F)cc1` (centres unmarked) [Example 16, N-{4-[(6,7-Dimethoxy-4-quinolyl)oxy]-2-methoxyphenyl}-N′-[1-(4-fluorophenyl)ethyl]urea], the “Selection ratio (KDR phosphorylation IC50 / c-fms phosphorylation IC50)” value was 0 (KDR phosphorylation 50% inhibitory concentration [μM]/c-fms phosphorylation 50% inhibitory concentration [μM] was less than 5) and the IC50 amounted to 3.1 nM.
On the same counts, the results for `COc1cc2c(Oc3ccc(NC(=O)NC(C)c4ccc(F)cc4)c(F)c3)ccnc2cc1OCCCN1CCOCC1` (centres unmarked) [Example 67, N-(2-Fluoro-4-{[6-methoxy-7-(3-morpholinopropoxy)-4-quinolyl]oxy}phenyl)-N′-[1-(4-fluorophenyl)ethyl]urea] are 0 (KDR phosphorylation 50% inhibitory concentration [μM]/c-fms phosphorylation 50% inhibitory concentration [μM] was less than 5) and 2.9 nM.
On the same counts, the results for `COc1cc2nccc(Oc3ccc(NC(=O)N[C@H](C)c4ccc(F)cc4)cc3Cl)c2cc1OC` [Example 12, N-{3-Chloro-4-[(6,7-dimethoxy-4-quinolyl)oxy]phenyl}-N′-[(1R)-1-(4-fluorophenyl)ethyl]urea] are 0 (KDR phosphorylation 50% inhibitory concentration [μM]/c-fms phosphorylation 50% inhibitory concentration [μM] was less than 5) and 2.8 nM.
On the same counts, the results for `COc1cc2nccc(Oc3ccc(NC(=O)N[C@H](C)c4cccc(Br)c4)c(F)c3)c2cc1OC` [Example 63, N-[(1R)-1-(3-Bromophenyl)ethyl]-N′-{4-[(6,7-dimethoxy-4-quinolyl)oxy]-2-fluorophenyl}urea] are 0 (KDR phosphorylation 50% inhibitory concentration [μM]/c-fms phosphorylation 50% inhibitory concentration [μM] was less than 5) and 2.6 nM.
Regarding `COc1cc2nccc(Oc3ccc(NC(=O)NC(C)c4ccc(F)cc4)cc3OC)c2cc1OC` (centres unmarked) [Example 22, N-{4-[(6,7-Dimethoxy-4-quinolyl)oxy]-3-methoxyphenyl}-N′-[1-(4-fluorophenyl)ethyl]urea], the “Selection ratio (KDR phosphorylation IC50 / c-fms phosphorylation IC50)” value was 0 (KDR phosphorylation 50% inhibitory concentration [μM]/c-fms phosphorylation 50% inhibitory concentration [μM] was less than 5) and the IC50 came to 3.9 nM.
For `COc1cc2nccc(Oc3ccc(NC(=O)NC(C)c4ncc(C)s4)c(C)c3)c2cc1OC` (centres unmarked) [Example 103, N-{4-[(6,7-Dimethoxy-4-quinolyl)oxy]-2-methylphenyl}-N′-[1-(5-methyl-1,3-thiazol-2-yl)ethyl]urea] the same measures were 0 (KDR phosphorylation 50% inhibitory concentration [μM]/c-fms phosphorylation 50% inhibitory concentration [μM] was less than 5) and 90.9 nM.
On to `COc1cc2nccc(Oc3ccc(NC(=O)NC(C)c4ncc(C)s4)cc3F)c2cc1OC` (centres unmarked) [Example 102, N-{4-[(6,7-Dimethoxy-4-quinolyl)oxy]-3-fluorophenyl}-N′-[1-(5-methyl-1,3-thiazol-2-yl)ethyl]urea], for which the “Selection ratio (KDR phosphorylation IC50 / c-fms phosphorylation IC50)” value is 2 (when the value was 10 or more) and the IC50 came out at 219 nM.
On the same counts, the results for `COc1cc2nccc(Oc3ccc(NC(=O)N[C@H](C)c4ccccc4OC)cc3)c2cc1OC` [Example 52, N-{4-[(6,7-Dimethoxy-4-quinolyl)oxy]phenyl}-N′-[(1R)-1-(2-methoxyphenyl)ethyl]urea] are 0 (KDR phosphorylation 50% inhibitory concentration [μM]/c-fms phosphorylation 50% inhibitory concentration [μM] was less than 5) and 7.2 nM.
On the same counts, the results for `COc1ccc([C@@H](C)NC(=O)Nc2ccc(Oc3ccnc4cc(OC)c(OC)cc34)cc2)cc1` [Example 54, N-{4-[(6,7-Dimethoxy-4-quinolyl)oxy]phenyl}-N′-[(1R)-1-(4-methoxyphenyl)ethyl]urea] are 1 (when the value was 5 or more) and 574 nM.
For `COc1cc2nccc(Oc3ccc(NC(=O)NC(C)c4nccs4)c(F)c3)c2cc1OC` (centres unmarked) [Example 70, N-{4-[(6,7-Dimethoxy-4-quinolyl)oxy]-2-fluorophenyl}-N′-[1-(1,3-thiazol-2-yl)ethyl]urea] the same measures were 2 (when the value was 10 or more) and 55.1 nM.
`COc1cc2nccc(Oc3ccc(NC(=O)NC(C)c4ncc(C)s4)c(F)c3)c2cc1OC` (centres unmarked) [Example 101, N-{4-[(6,7-Dimethoxy-4-quinolyl)oxy]-2-fluorophenyl}-N′-[1-(5-methyl-1,3-thiazol-2-yl)ethyl]urea]: the “Selection ratio (KDR phosphorylation IC50 / c-fms phosphorylation IC50)” value was 2 (when the value was 10 or more) and the IC50 was found to be 239 nM.
On the same counts, the results for `COc1cc2nccc(Oc3ccc(NC(=O)N[C@@H](C)c4ccc(F)cc4)c(F)c3)c2cc1OC` [Example 29, N-{4-[(6,7-Dimethoxy-4-quinolyl)oxy]-2-fluorophenyl}-N′-[(1S)-1-(4-fluorophenyl)ethyl]urea] are 2 (when the value was 10 or more) and 27.3 nM.
Consider `COc1cc2nccc(Oc3cc(C)c(NC(=O)NC(C)c4ccc(F)cc4)cc3C)c2cc1OC` (centres unmarked) [Example 7, N-{4-[(6,7-Dimethoxy-4-quinolyl)oxy]-2,5-dimethylphenyl}-N′-[1-(4-fluorophenyl)ethyl]urea], for which the “Selection ratio (KDR phosphorylation IC50 / c-fms phosphorylation IC50)” value is 0 (KDR phosphorylation 50% inhibitory concentration [μM]/c-fms phosphorylation 50% inhibitory concentration [μM] was less than 5) and the IC50 was 3.1 nM.

For the origin of these results see patent US7598258B2, “Quinoline derivatives and quinazoline derivatives inhibiting autophosphorylation of macrophage colony stimulating factor receptor” (Kirin Beer Kabushiki Kaisha, priority 2002, dated 2009).
